How the values were obtained:
Vrg4 liposomes = format: biochemical; settings: liposome assays, GDP-mannose versus GMP as antiport substrate
[1] = test system: NDY5 yeast containing an empty yEP181 vector; assay: Hygromycin B-based in vivo viability (growth) assay; format: cell-based, Saccharomyces cerevisiae
Protocol: The yeast was grown in minimal media to select for the plasmids, and the expression of the nanobody was induced with galactose. After overnight galactose induction, the yeast culture was diluted, and growth was monitored over 30 h.
An overnight culture was grown in minus -Leu-Ura medium containing 2% glucose and then diluted 1:10 into medium containing 2% lactate. After 9 h of growth, 2% galactose was added, and the cultures were left overnight. […] The cultures were grown at 30 °C with shaking, and growth was monitored over the next 30 h by measuring the OD.

Row | SMILES | Transport rate as antiport substrate, in words (Vrg4 liposomes) | Growth / sensitivity to hygromycin B, in words [1]
1 | Nc1nc2c(ncn2[C@@H]2O[C@H](COP(=O)(O)OP(=O)(O)O[C@H]3O[C@H](CO)[C@@H](O)[C@H](O)[C@@H]3O)[C@@H](O)[C@H]2O)c(=O)[nH]1 [GDP-mannose] | faster transport rates and greater overall uptake | 
2 | CN[C@H]1C[C@@H](N)[C@H](O)[C@@H](O[C@@H]2O[C@H](CO)[C@H](O)[C@@H]3OC4(O[C@H]23)O[C@H]([C@@H](N)CO)[C@H](O)[C@H](O)[C@H]4O)[C@@H]1O (some centres unmarked) [hygromycin B] |  | sensitive

From paper PMC13342644, “Structural basis for transport and inhibition of nucleotide sugar transport in pathogenic fungi” (Nature Communications, 2026)
